According to patent US20260102472A1, “SEMAGLUTIDE IN MEDICAL THERAPY” (Novo Nordisk A/S, priority 2023, published 2026):

System: human subjects with obesity-related heart failure with preserved ejection fraction, and type 2 diabetes
Test: Randomised, double-blind, placebo-controlled clinical trial of semaglutide in obesity-related HFpEF and type 2 diabetes (Example 2)
Type: in vivo
Conditions: for Time to first HF event from randomisation leading to either hospitalisation or an urgent visit, Hazard ratio: Semaglutide 2.4 mg/placebo
Source text: The Kansas City Cardiomyopathy Questionnaire (KCCQ) is a disease-specific health status instrument composed of 23 items that quantify the domains of physical limitation, symptoms, self-efficacy, social limitation, and health-related quality of life limitation from heart failure (available via cvoutcomes.org). The questions of the KCCQ are as published in the appendix of Green et al., JACC 2000; 35 (5): 1245-55:
The Kansas City Cardiomyopathy Questionnaire clinical summary score (KCCQ-CSS) is used for interpretation of the KCCQ and scores range from 0 to 100 where higher scores indicate better function. KCCQ-CSS is calculated as the mean of the available summary scores Physical Limitation Score and Total Symptom Score from the KCCQ. […] “Total Symptom Score” is calculated as the mean of the available summary scores Symptom Frequency Score and Symptom Burden Score. “Symptom Frequency Score” is calculated, if answer to at least two of Questions 3, 5, 7 and 9 are not missing, as 100*(mean of S3, S5, S7 and S9 answered), where S3=[(Question 3)−1]/4, S5=[(Question 5)−1]/6, S7=[(Question 7)−1]/6, and S9=[(Question 9)−1]/4; answers to Question 3 are scored as follows: Every morning=1, 3 or more times a week but not every day=2, 1-2 times a week=3, Less than once a week=4, Never over the past 2 weeks=5; answers to Questions 5 and 7 are scored as follows: All of the time=1, Several times a day=2, At least once a day=3, 3 or more times a week but not every day=4, 1-2 times a week=5, Less than once a week=6, or Never over the past 2 weeks=7; and answers to Question 9 are scored as follows: Every night=1, 3 or more times a week but not every day=2, 1-2 times a week=3, Less than once a week=4, or Never over the past 2 weeks=5. “Symptom Burden Score” is calculated, if answer to at least one of Questions 4, 6 and 8 is not missing, as 100*[(mean of Questions 4, 6 and 8 answered)−1]/4 where answers are scored as follows: Extremely bothersome=1, Quite a bit bothersome=2, Moderately bothersome=3, Slightly bothersome=4, Not at all bothersome=5, or I've had no swelling/fatigue/shortness of breath=5. The term “mean of questions answered” as used herein refers to that for a scale with n in questions where the subject must answer m to score the scale, but the subject answers only n-i, where n-i>=m, then the mean of those questions is calculated as (sum of answers to those n-i questions)/(n-i).
The six minute walk test (6MWT) is a determination of the distance a subject is able to walk over a period of six minutes where the subject traverses, at its own pace and resting as needed, back and forth along a marked walkway of 20 meters with the goal of walking as far as possible without running. The distance obtained from 6MWT is referred to as the six minute walk distance (6MWD). The 6MWT is a direct and timed measure of walking ability, which is technically simple and reproducible.
Heart failure exists in different degrees of severity. The most commonly used classification system of heart failure is the New York Heart Association Functional Classification (also referred to as “NYHA”). NYHA categorises subjects in one of four classes I-IV (Table A), based on their degree of limitation during physical activity, and optionally an additional subgroup A-D based on objective assessments, for further details see The Criteria Committee of the New York Heart Association. Nomenclature and Criteria for Diagnosis of Diseases of the Heart and Great Vessels. 9th ed. Boston, Mass: Little, Brown & Co; 1994:253-256.
A randomised, double-blind, international multicentre, placebo-controlled clinical trial with semaglutide was carried out with 616 human subjects with obesity-related heart failure with preserved ejection fraction, and type 2 diabetes. […]

[1] = pair-wise comparisons vs. placebo, 2.4 mg, type 2 diabetes
[2] = week 0, 2.4 mg once weekly, type 2 diabetes
[3] = week 20, 2.4 mg once weekly, type 2 diabetes
[4] = week 36, 2.4 mg once weekly, type 2 diabetes
[5] = week 52, 2.4 mg once weekly vs. placebo, type 2 diabetes
[6] = week 52, 2.4 mg once weekly vs. placebo, type 2 diabetes, listed as semaglutide
[7] = week 52, 2.4 mg once weekly, type 2 diabetes
[8] = week 52, 2.4 mg once weekly, type 2 diabetes, ANCOVA estimate

N-epsilon26-[2-(2-{2-[2-(2-{2-[(S)-4-Carboxy-4-(17-carboxyheptadecanoyl-amino) butyrylamino]ethoxy}ethoxy) acetylamino]ethoxy}ethoxy) acetyl] [Aib8,Arg34] GLP-1-(7-37) [Semaglutide]
Inflammation (HFpEF, obesity and type 2 diabetes, no data given): reduced inflammation | Time to first HF event from randomisation leading to either hospitalisation or an urgent visit, Hazard ratio (type 2 diabetes): 0.40 | Time to first HF event from randomisation leading to either hospitalisation or an urgent visit, Hazard ratio (type 2 diabetes, listed as semaglutide): risk of experiencing a heart failure event was less | Patients improved or with no change in NYHA class compared with placebo (baseline to 52 weeks, type 2 diabetes): more patients treated with semaglutide improved or observed no change in NYHA class | More wins on semaglutide as compared to placebo (hierarchical composite endpoint, type 2 diabetes): 59% | Hierarchical composite endpoint, Loss: All-cause death [1]: 1.9% | Hierarchical composite endpoint, Loss: Change in 6MWD ≥30 meters difference [1]: 4.1% | Hierarchical composite endpoint, Loss: Change in KCCQ-CSS ≥5 points difference [1]: 6.2% | Hierarchical composite endpoint, Loss: Change in KCCQ-CSS ≥10 points difference [1]: 5.0% | Hierarchical composite endpoint, Loss: Change in KCCQ-CSS ≥15 points difference [1]: 18.2% | Hierarchical composite endpoint, Loss: Number of HF events [1]: 1.2% | Hierarchical composite endpoint, Loss: Time-to-first HF event [1]: 0.0% | Hierarchical composite endpoint, Loss: Total [1]: 36.8% | Hierarchical composite endpoint, Proportion of ties [1]: Proportion of ties: 4.5% | Hierarchical composite endpoint, Wins: All-cause death [1]: 2.9% | Hierarchical composite endpoint, Wins: Change in 6MWD ≥30 meters difference [1]: 4.9% | Hierarchical composite endpoint, Wins: Change in KCCQ-CSS ≥5 points difference [1]: 7.3% | Hierarchical composite endpoint, Wins: Change in KCCQ-CSS ≥10 points difference [1]: 6.6% | Hierarchical composite endpoint, Wins: Change in KCCQ-CSS ≥15 points difference [1]: 32.3% | Hierarchical composite endpoint, Wins: Number of HF events [1]: 4.7% | Hierarchical composite endpoint, Wins: Time-to-first HF event [1]: 0.0% | Hierarchical composite endpoint, Wins: Total [1]: 58.7% | Observed KCCQ-CSS mean change from baseline [2]: 0 | Observed body weight (%) mean change from baseline [2]: 0% | Observed six minutes walk distance mean change from baseline [2]: 0 meters | Observed body weight (%) mean change from baseline (week 4, dose escalation to 2.4 mg once weekly, type 2 diabetes): −1.8% | Observed body weight (%) mean change from baseline (week 8, dose escalation to 2.4 mg once weekly, type 2 diabetes): −3.1% | Observed body weight (%) mean change from baseline (week 12, dose escalation to 2.4 mg once weekly, type 2 diabetes): −4.5% | Observed body weight (%) mean change from baseline (week 16, dose escalation to 2.4 mg once weekly, type 2 diabetes): −5.8% | Observed KCCQ-CSS mean change from baseline [3]: 11.1 | Observed body weight (%) mean change from baseline [3]: −6.6% | Observed six minutes walk distance mean change from baseline [3]: 23.0 meters | Observed body weight (%) mean change from baseline (week 28, 2.4 mg once weekly, type 2 diabetes): −8.0% | Observed KCCQ-CSS mean change from baseline [4]: 14.2 | Observed body weight (%) mean change from baseline [4]: −9.1% | Observed body weight (%) mean change from baseline (week 44, 2.4 mg once weekly, type 2 diabetes): −9.8% | Body weight (%) change from baseline to week 52, Treatment difference vs. placebo [5]: −6.4% | Improvement of ≥5 points in KCCQ-CSS, Treatment Odds ratio vs. placebo [5]: 2.29 | Improvement of ≥10 points in KCCQ-CSS, Treatment Odds ratio vs. placebo [5]: 2.06 | KCCQ-CSS change from baseline to week 52, Treatment difference vs. placebo [5]: 7.3 score | Six minutes walk distance change from baseline to week 52, Treatment difference vs. placebo [5]: 14.3 meters | Body weight (%) change from baseline to week 52, Treatment difference vs. placebo [6]: significantly larger body weight loss | KCCQ-CSS change from baseline to week 52, Treatment difference vs. placebo [6]: significantly larger improvement in KCCQ-CSS | Six minutes walk distance change from baseline to week 52, Treatment difference vs. placebo [6]: significantly larger improvement in six minutes walk distance | NYHA class from baseline to week 52: Improvement [7]: 33.9% | NYHA class from baseline to week 52: No change [7]: 63.7% | NYHA class from baseline to week 52: Worsening [7]: 2.4% | Observed KCCQ-CSS mean change from baseline [7]: 14.4 | Observed body weight (%) mean change from baseline [7]: −10.2% | Observed proportion improving ≥5 points from baseline in KCCQ-CSS [7]: 73% | Observed proportion improving ≥10 points from baseline in KCCQ-CSS [7]: 58% | Observed six minutes walk distance mean change from baseline [7]: 18.6 meters | Body weight (%) change from baseline to week 52, Estimate [8]: −9.8% | KCCQ-CSS change from baseline to week 52, Estimate [8]: 13.7 score | Six minutes walk distance change from baseline to week 52, Estimate [8]: 12.7 meters
